PubChem BioAssay (NCI)
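Tested at 5 concentrations; 48 h exposure; 96-well plates; endpoints linearly interpolated, else capped at highest concentration. Abbreviation: GI50, concentration required for 50% inhibition of growth. TGI: total growth inhibition.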

Key:
Assay in all cases: NCI anticancer screen, dose series, 48 h
CCRF-CEM leukemia = tested on: CCRF-CEM leukemia
BT-549 breast = tested on: BT-549 breast
K-562 leukemia = tested on: K-562 leukemia
HS 578T breast = tested on: HS 578T breast
COLO 205 colon = tested on: COLO 205 colon
T-47D breast = tested on: T-47D breast
UACC-257 melanoma = tested on: UACC-257 melanoma
SNB-19 CNS = tested on: SNB-19 CNS
786-0 renal = tested on: 786-0 renal
A549 NSCLC = tested on: A549 NSCLC

Structure (SMILES) | TGI (CCRF-CEM leukemia) [µM] | TGI (BT-549 breast) [µM] | TGI (K-562 leukemia) [µM] | TGI (HS 578T breast) [µM] | TGI (COLO 205 colon) [µM] | TGI (T-47D breast) [µM] | TGI (UACC-257 melanoma) [µM] | TGI (SNB-19 CNS) [µM] | TGI (786-0 renal) [µM] | TGI (A549 NSCLC) [µM] | GI50 (CCRF-CEM leukemia) [µM] | GI50 (BT-549 breast) [µM] | GI50 (K-562 leukemia) [µM] | GI50 (HS 578T breast) [µM] | GI50 (COLO 205 colon) [µM] | GI50 (T-47D breast) [µM] | GI50 (UACC-257 melanoma) [µM] | GI50 (SNB-19 CNS) [µM] | GI50 (786-0 renal) [µM] | GI50 (A549 NSCLC) [µM]
CCc1ccccc1N1CCN(C(=O)c2cc(OC)c(OC)c(OC)c2)CC1 | > 100 | 5.87 | 39.4 | 0.0608 | 0.108 | 67.9 | > 73.2 | > 56 | > 100 | 72.4 |  |  |  |  |  |  |  |  |  | 
COc1cc(C(O)c2nc3ccccc3s2)cc(OC)c1OC (stereo not given) | > 100 | > 100 | > 100 | > 100 | > 100 | > 100 | > 100 | > 100 | > 100 | > 100 | 49.5 | 60.6 | 3.6 | 40.5 | > 100 | 17.3 | 26 | > 100 | > 100 | 86.7
N#Cc1c(N)nc(N2CCOCC2)c(C#N)c1-c1ccc(Cl)cc1 | > 100 | > 100 | > 100 | > 100 | > 100 | > 100 | > 100 | > 100 | > 100 | > 100 | 34.5 | 32 | > 100 | 40.6 | 48.5 | 16.1 | 40.8 | 28.1 | 70.7 | 42.6
COc1ccc(C(=O)/C=C/c2c(C(F)(F)F)nc3sccn23)cc1OC | > 100 | > 100 | > 100 | 16.8 | 72.4 | 40.7 | > 100 | > 100 | > 100 | > 100 | 2.33 | 3.25 | 2.25 | 2.51 | 4.56 | 2.9 | 7.77 | 4.25 | 5.67 | 4.65
Cn1ccc2c(c1=O)C(=O)c1nccc3c1c-2nc1ccccc13 | > 100 | 4.77 |  |  | 2.96 | 3.74 |  | 3.03 | 3.18 | 2.9 | 2.21 | 2.12 |  |  | 1.57 | 1.8 |  | 1.59 | 1.64 | 1.47
COc1ccc2c(c1)c(-c1nc(-c3c[nH]c4ncccc34)cs1)cn2CCCCN1CCOCC1 | 5.1 | 15.5 | 3.99 | 5.82 | 3.58 | 6.5 | 3.85 |  | 3.3 | 4.28 | 2.12 | 3.74 | 1.95 | 2.05 | 1.85 | 2.12 | 2.18 |  | 1.78 | 2.23
C=CCNCCCN1C(=O)c2ccc3c4c(ccc(c24)C1=O)C(=O)N(CCCNCC=C)C3=O | 3.78 | 3.63 | 1.48 | 5.16 | 0.335 |  | 1.2 | 1.96 | 4.7 | 0.605 | 0.349 | 1.78 | 0.296 | 1.3 | 0.172 |  | 0.333 | 0.592 | 0.831 | 0.226
